According to ChEMBL document CHEMBL2074357, “Identification and functional assessment of the novel murine organic anion transporter Oat5 (Slc22a19) expressed in kidney” (Am J Physiol Renal Physiol, 2004):

What was measured:
Type in all cases: functional, cell-based
[1] = target: T1, Solute carrier family 22 member 19 (Mus musculus) (UniProt Q8VCA0); assay: TP_TRANSPORTER: inhibition of (Ochratoxin A: 0.5uM) of Probenecid at a concentration of 1000uM in Oat5-expressing Xenopus oocytes; design: scale not given: the % may be the effect or the level left; conditions: Xenopus laevis, Oocyte
T1 sequence (whole entry): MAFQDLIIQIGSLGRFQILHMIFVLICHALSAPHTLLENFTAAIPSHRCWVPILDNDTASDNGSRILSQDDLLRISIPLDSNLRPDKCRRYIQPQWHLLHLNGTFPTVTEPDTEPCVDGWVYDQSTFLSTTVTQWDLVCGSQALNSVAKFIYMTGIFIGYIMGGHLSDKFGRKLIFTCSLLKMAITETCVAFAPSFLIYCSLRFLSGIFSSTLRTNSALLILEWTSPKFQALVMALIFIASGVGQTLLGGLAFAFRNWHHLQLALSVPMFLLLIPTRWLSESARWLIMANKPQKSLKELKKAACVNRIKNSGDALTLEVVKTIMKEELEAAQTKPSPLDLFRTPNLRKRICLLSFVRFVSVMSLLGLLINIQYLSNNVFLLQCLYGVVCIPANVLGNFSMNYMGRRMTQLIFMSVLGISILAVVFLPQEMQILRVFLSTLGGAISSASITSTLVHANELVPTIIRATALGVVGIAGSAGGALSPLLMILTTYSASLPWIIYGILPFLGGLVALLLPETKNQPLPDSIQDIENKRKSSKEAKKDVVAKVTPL

[2] = target: T1, Solute carrier family 22 member 19 (Mus musculus); assay: TP_TRANSPORTER: inhibition of (Ochratoxin A: 0.5uM) of 2,4-dichlorophenoxyacetic acid at a concentration of 100uM in Oat5-expressing oocytes; design: scale not given: the % may be the effect or the level left; conditions: Xenopus laevis, Oocyte
[3] = target: T1, Solute carrier family 22 member 19 (Mus musculus); assay: TP_TRANSPORTER: inhibition of (Ochratoxin A: 0.5uM) of Estrone-3-sulfate at a concentration of 100uM in Oat5-expressing oocytes; design: scale not given: the % may be the effect or the level left; conditions: Xenopus laevis, Oocyte
[4] = substrate: C[C@@H]1Cc2c(Cl)cc(C(=O)N[C@@H](Cc3ccccc3)C(=O)O)c(O)c2C(=O)O1; assay: TP_TRANSPORTER: uptake in Oat5-expressing oocytes; conditions: Xenopus laevis; Oocyte

CCCN(CCC)S(=O)(=O)c1ccc(C(=O)O)cc1
Activity [1]: 25%

O=C(O)COc1ccc(Cl)cc1Cl
Activity [2]: 25%

C[C@]12CC[C@@H]3c4ccc(OS(=O)(=O)O)cc4CC[C@H]3[C@@H]1CCC2=O
Activity [3]: 5%

B1: Solute carrier family 22 member 19 (Mus musculus), Q8VCA0 (protein)
chain: T1 sequence (whole entry)
Km [4]: 2 µM
